Assay [1] has as its target T1, BpsA (Streptomyces lavendulae, UniProt Q1MWN4). Briefly: Relative reaction rate of L-glutamine versus analogue with BpsA. Type of assay: biochemical. Particulars: L-glutamine faster than an analogue (e.g. L-glycyl glutamine). The procedure: Without wishing to be bound by theory, it is believed that BpsA or a related enzyme can be used to measure both L-glutamine and a glutamine analogue (e.g., L-glycyl glutamine) in the same sample. Experiments have shown that L-glutamine reacts much faster with BpsA (˜100-1000 fold) than an analogue. Thus, it would be possible to incubate the sample for a short period (e.g., 2 minutes), remove the blue pigment, and measure the pigment levels to calculate L-glutamine levels. It would then be possible to wait for a further longer period (e.g., 8 hours), and measure the remaining blue pigment to calculate analogue levels (e.g., L-glycyl glutamine). It is expected that there would be little contamination of the glutamine-based product by the analogue-based product based on the enzymatic profile for BpsA.

The target of assay [2] is T1, BpsA. The assay is described as follows: BpsA end-point assay measuring L-glutamine in complex biological media (indigoidine re-solubilised in DMSO, A590). As to conditions: for Spiked − unspiked (μM L-glutamine +/− 1 std dev): 300 μM spike. On the procedure: For improved accuracy, reproducibility, and robustness, it is generally preferable to use an end-point assay over a kinetic assay. An end-point assay for BpsA was designed and carried out as follows. In these experiments, 40 μL indigoidine-producing reactions were run until all glutamine present was consumed, and then all the indigoidine was solubilised by adding 190 μL of the organosulfur solvent dimethyl sulfoxide (DMSO).
Indigoidine synthesis reactions were initiated by addition of 10 μL of each L-glutamine concentration standard in triplicate. […] The 96 plate was then mixed at 1000 rpm for 10 seconds and incubated at room temperature for 45 minutes to enable complete reaction of all L-glutamine present in each well. After this, 190 μL of DMSO heated to 50° C. was added to each well to solubilise the indigoidine. The 96 well plate was then incubated at room temperature with shaking at 2500 rpm for 10 minutes. […] This yielded a standard curve with an excellent straight line fit (FIG. 4).
For these experiments, standard samples (10 μL per well) were prepared in triplicate in ddH2O as per Example 4 at the following concentrations: 1000 μM, 800 μM, 600 μM, 400 μM, 200 μM, and 0 μM. Alongside these were aliquoted paired triplicate samples (10 μL per well) of the following media: adult bovine serum (purchased from Sigma-Aldrich), human urine, LB, DMEM, and ddH2O. For each medium, one of the two paired triplicate sets was spiked (amended) with 300 μM L-glutamine, while the other was left unspiked. Indigoidine synthesis was initiated by addition of 30 μL reaction mix (as described in Table 4) to each sample-containing well. The 96 well plate was then mixed at 1000 rpm for 10 seconds and incubated at room temperature for one hour, after which 180 μL of DMSO heated to 50° C. was added to each well. The plate was then shaken at 2500 rpm for 10 minutes to fully solubilise the indigoidine.
It was observed that the serum containing wells went immediately cloudy upon addition of DMSO, preventing meaningful A590 readings from being obtained for those samples. In all other cases, a single A590 reading for each well was recorded. For each sample, triplicate A590 values were averaged and this value was used to quantify glutamine levels based on the standard curve generated from the standard samples. With the exception of the ddH2O, it was unknown what the starting concentration of L-glutamine was in each medium being tested. However, the comparison of measured L-glutamine levels in spiked versus unspiked samples for each medium enabled assessment of the accuracy of the BpsA end-point assay in measuring L-glutamine concentrations in that medium.

T1 sequence (Q1MWN4 whole entry): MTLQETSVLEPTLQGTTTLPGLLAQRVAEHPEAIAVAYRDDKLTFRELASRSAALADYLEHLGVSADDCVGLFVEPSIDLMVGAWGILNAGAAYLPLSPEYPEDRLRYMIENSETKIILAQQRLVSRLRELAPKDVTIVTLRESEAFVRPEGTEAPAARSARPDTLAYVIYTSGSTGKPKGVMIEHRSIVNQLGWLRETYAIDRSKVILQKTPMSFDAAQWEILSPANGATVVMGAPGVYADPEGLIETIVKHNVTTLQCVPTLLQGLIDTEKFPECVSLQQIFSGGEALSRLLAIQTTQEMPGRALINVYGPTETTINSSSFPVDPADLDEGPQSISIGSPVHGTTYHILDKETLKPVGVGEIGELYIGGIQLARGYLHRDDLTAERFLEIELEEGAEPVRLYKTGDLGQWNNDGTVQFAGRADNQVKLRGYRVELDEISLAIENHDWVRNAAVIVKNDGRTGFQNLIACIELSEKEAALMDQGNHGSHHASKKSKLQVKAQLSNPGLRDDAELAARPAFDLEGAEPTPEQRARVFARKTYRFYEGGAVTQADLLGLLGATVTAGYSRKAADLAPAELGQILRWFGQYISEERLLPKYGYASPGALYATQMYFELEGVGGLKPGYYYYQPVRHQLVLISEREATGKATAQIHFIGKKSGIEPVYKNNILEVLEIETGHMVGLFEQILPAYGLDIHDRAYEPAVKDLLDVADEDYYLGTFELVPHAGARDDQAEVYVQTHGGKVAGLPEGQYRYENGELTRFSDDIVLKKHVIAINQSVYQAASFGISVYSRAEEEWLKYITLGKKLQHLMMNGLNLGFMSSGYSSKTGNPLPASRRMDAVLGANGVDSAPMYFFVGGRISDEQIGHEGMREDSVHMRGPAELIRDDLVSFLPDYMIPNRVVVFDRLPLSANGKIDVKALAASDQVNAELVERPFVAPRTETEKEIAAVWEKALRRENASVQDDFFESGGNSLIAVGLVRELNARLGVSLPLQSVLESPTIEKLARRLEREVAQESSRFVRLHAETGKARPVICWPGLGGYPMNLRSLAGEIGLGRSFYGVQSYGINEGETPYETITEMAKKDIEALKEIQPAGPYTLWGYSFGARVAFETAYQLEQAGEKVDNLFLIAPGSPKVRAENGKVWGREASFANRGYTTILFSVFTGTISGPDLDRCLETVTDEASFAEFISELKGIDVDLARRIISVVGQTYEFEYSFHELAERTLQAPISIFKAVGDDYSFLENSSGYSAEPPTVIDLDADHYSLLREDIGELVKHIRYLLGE

As for `NC(=O)CC[C@H](N)C(=O)O` [L-glutamine], on BpsA [1], the “Reaction rate with BpsA relative to an analogue” value is reported as 100-1000 fold. The “Spiked sample measurement (μM L-glutamine +/− 1 std dev)” value at BpsA [2] (DMEM spiked with 300 μM L-glutamine, standard curve in ddH2O) stood at 427.4 ± 4.6 µM; on BpsA [2] (LB spiked with 300 μM L-glutamine, standard curve in ddH2O) it was 377.9 ± 14.1 µM; at BpsA [2] (ddH2O spiked with 300 μM L-glutamine), 319.0 ± 5.4 µM; on BpsA [2] (human urine spiked with 300 μM L-glutamine, standard curve in ddH2O), 295.8 ± 7.1 µM. Moreover, the “Unspiked sample measurement (μM L-glutamine +/− 1 std dev)” value at BpsA [2] (DMEM) came out at 20.3 ± 2.7 µM; on BpsA [2] (LB), 49.6 ± 5.3 µM; on BpsA [2] (human urine), 71.4 ± 23.6 µM. Further, the “Spiked − unspiked (μM L-glutamine +/− 1 std dev)” value at BpsA [2] (DMEM) amounted to 407.0 ± 5.4 µM; on BpsA [2] (LB) it was 328.1 ± 15.2 µM; at BpsA [2] (ddH2O) it was 319.0 ± 5.4 µM; at BpsA [2] (human urine) it was 224.4 ± 24.9 µM.

The record behind these values is US10725049B2, “Methods of detecting and measuring glutamine and analogues thereof, and methods related thereto” (Victoria Link Limited, priority 2013, dated 2020).
